According to patent publication US20240116910A1, “Heterocycles as WIP1 Inhibitors” (PMV Pharmaceuticals, Inc., priority 2022, published 2024):

Target: recombinant His-tag Wip1(2-420) protein (amino acids #2-420) (Homo sapiens (Human), UniProt O15297)
Test: Wip1(2-420) phosphatase enzyme FDP assay
Type: biochemical
Settings: fluorescein diphosphate (FDP) substrate, RT 2 hours, fluorescence Ex485/Em535; read-out: WIP1 (Truncated 2-420) FDP Assay: IC50
Description: The Human Wip1 (2-420, aa 2-420) or Wip1 full length (aa 1-605) DNA sequence was codon optimized and synthesized by Genscript for insect cell expression. The open reading frame of Wip1(2-420) with a N-terminal-His6 affinity tag followed by a TEV cleavage site was subcloned sites into the pFastBac1 expression vector. The recombinant bacmid DNA was transfected in Sf9 insect cells for baculovirus production. After 72 hours infection, the Sf9 cells were harvested by centrifugation and resuspended in lysis buffer containing 50 mM Tris/HCl, pH 8.0, 500 mM NaCl, 20% glycerol, Benzonase 0.5% CHAPS and Roche cOmplete™ EDTA free protease inhibitors. Cells were disrupted with microfluidizer and the debris was removed by centrifugation at 185,000 g for 1 hour. The supernatant was subjected to HisTrap FF for affinity purification. Proteins were eluted with a linear gradient of 0-500 mM imidazole in HisTrap buffer containing 50 mM Tris/HCl, pH 8.0, 500 mM NaCl and 20% glycerol, 0.05% CHAPS. The eluted protein was dialyzed against dialysis buffer (20 mM MES, 100 mM NaCl, 20% glycerol, 0.5 mM TCEP, 0.05% CHAPS) followed purification via HiTrap SP HP column. The protein was eluted with a gradient of 100 mM-2 M NaCl in dialysis buffer. His6-[…] was finally concentrated and loaded onto a size-exclusion column (NiLoad 16/600 Superdex 200 pg, GE Healthcare) pre-equilibrated with 50 mM MOPS (pH 7.5), 200 mM NaCl, 20% glycerol, 1 mM TCEP, 0.05% CHAPS and 0.1 mM EGTA. The peak fractions containing purified Nis6-Wip1(2-420) were pooled and concentrated to 1.0 mg/mL and flash frozen at −80° C.
Wip1 Length and Wip1(2-420) Phosphatase Enzyme FDP Assays.
Test compounds (252 mM stock in DMSO) were diluted 3 folds in series in DMSO and 1.2 μl per well were added into 384-well polypropylene black plates (Nunc). Twelve μl per well of Assay Buffer (100 mM NaCl, 50 mM MOPS, pH 7.5, 0.8 mM CHAPS, 0.1 mM EGTA, 30 mM MgCl2, 0.3 mM TCEP, 0.2 mg/mL BSA) was added followed by […] per well of 50.4 nM recombinant His-tag Wip1 full length protein (amino acids #1-605) or recombinant His-tag Wip1(2-420) protein (amino acids #2-420) in Assay Buffer and the plate was incubated at RT (22° C.) for 5 min. Ten mM of fluorescein diphosphate (FDP) in DMSO was diluted to […] in Assay Buffer and […] per well was added to the plate and incubated at RT (22° C.) for 2 hours. […] per well of 64.1 mM EDTA in water were added to stop the enzyme reaction. The plate was centrifuged at 1,200 rpm (Eppendorf 5810R Plate centrifuge) for 1 minute and fluorescence intensity (Ex485/Em535) was measured on Perkin Elmer Victor Reader. EC50 values were calculated using either Prism (GraphPad) or ActivityBase software (IDBS), The IC50 results are provided in Table M.

Sequence of recombinant His-tag Wip1(2-420) protein (amino acids #2-420) (O15297 2-420): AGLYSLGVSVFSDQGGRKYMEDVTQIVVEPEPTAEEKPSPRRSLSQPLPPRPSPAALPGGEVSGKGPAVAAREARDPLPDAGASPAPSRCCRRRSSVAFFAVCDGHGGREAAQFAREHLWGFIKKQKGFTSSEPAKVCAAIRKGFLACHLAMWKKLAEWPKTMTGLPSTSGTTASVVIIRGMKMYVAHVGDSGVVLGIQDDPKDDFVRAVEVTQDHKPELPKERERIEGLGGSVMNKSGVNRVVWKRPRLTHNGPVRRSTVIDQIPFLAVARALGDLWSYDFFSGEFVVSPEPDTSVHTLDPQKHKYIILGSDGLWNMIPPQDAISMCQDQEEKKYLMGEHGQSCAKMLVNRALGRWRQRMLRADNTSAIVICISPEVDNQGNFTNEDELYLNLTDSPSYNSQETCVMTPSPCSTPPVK

Row | Structure (SMILES) | IC50 [nM]
1 | CC[C@@H](Nc1cc(Cl)cnc1C)c1ccc(C(=O)N[C@@H](CC2CCCC2)C(=O)NC23CC(C#N)(C2)C3)s1 [Compound 81, (2S)-2-({5-[(1R)-1-[(5-chloro-2-methylpyridin-3-yl)amino]propyl]thiophen-2-yl}formamido)-N-{3-cyanobicyclo[1.1.1]pentan-1-yl}-3-cyclopentylpropanamide] | 693
2 | Cc1ncc(Cl)cc1N[C@@H](C)c1ccc(C(=O)N[C@@H](C(=O)NC23CC(C2)C3)C(C)(C)C)s1 [Compound 247, (2R)-N-{bicyclo[1.1.1]pentan-1-yl}-2-({5-[(1S)-1-[(5-chloro-2-methylpyridin-3-yl)amino]ethyl]thiophen-2-yl}formamido)-3,3-dimethylbutanamide] | > 10000
3 | C[C@@H](Nc1cc(Cl)cnc1C(C)(C)O)c1ccc(C(=O)N[C@@H](CC2CCCC2)C(=O)NC2CC2)s1 [Compound 193, (2S)-2-({5-[(1R)-1-{[5-chloro-2-(2-hydroxypropan-2-yl)pyridin-3-yl]amino}ethyl]thiophen-2-yl}formamido)-3-cyclopentyl-N-cyclopropylpropanamide] | 316
4 | Cc1cc(NC(=O)[C@@H](CCC(C)(C)C)NC(=O)c2ccc([C@H](C)Nc3cc(Cl)cnc3C)s2)ccn1 [Compound 145, (2R)-2-({5-[(1S)-1-[(5-chloro-2-methylpyridin-3-yl)amino]ethyl]thiophen-2-yl}formamido)-5,5-dimethyl-N-(2-methylpyridin-4-yl)hexanamide] | 1420
5 | Cc1ncc(Cl)cc1NC(c1ccc(C(=O)N[C@@H](CC2CCCC2)C(=O)NC23CC(C2)C3)s1)C(F)(F)F (stereo partly drawn) [Compound 225, (2S)-N-{bicyclo[1.1.1]pentan-1-yl}-2-[(5-{1-[(5-chloro-2-methylpyridin-3-yl)amino]-2,2,2-trifluoroethyl}thiophen-2-yl)formamido]-3-cyclopentylpropanamide] | 89
6 | C[C@H](Nc1cccc(Cl)c1)c1ncc(C(=O)N[C@@H](CC2CCCC2)C(=O)NC2CC2)s1 [Compound 124, (2S)-2-({2-[(1S)-1-[(3-chlorophenyl)amino]ethyl]-1,3-thiazol-5-yl}formamido)-3-cyclopentyl-N-cyclopropylpropanamide] | 905
7 | COCC(Nc1cc(Cl)cnc1C)c1ccc(C(=O)N[C@@H](CC2CCCC2)C(=O)NC2CC2)s1 (stereo partly drawn) [Compound 176, (2S)-2-[(5-{1-[(5-chloro-2-methylpyridin-3-yl)amino]-2-methoxyethyl}thiophen-2-yl)formamido]-3-cyclopentyl-N-cyclopropylpropanamide] | 21
8 | CC(Nc1cc(Cl)cnc1C(C)(C)O)c1ccc(C(=O)N[C@@H](CC2CCCC2)C(=O)NC2CC2)s1 (stereo partly drawn) [Compound 203, (2S)-2-{[5-(1-{[5-chloro-2-(2-hydroxypropan-2-yl)pyridin-3-yl]amino}ethyl)thiophen-2-yl]formamido}-3-cyclopentyl-N-cyclopropylpropanamide] | 17

Now those with a lower IC50, led by results:

Row | IC50 [nM] | Structure (SMILES)
9 | 13 | C[C@H](Nc1cc(Cl)cnc1-c1cccnc1)c1ccc(C(=O)N[C@@H](CC2CCCC2)C(=O)NC2CC2)s1 [Compound 232, (2S)-2-({5-[(1S)-1-({5-chloro-[2,3′-bipyridin]-3-yl}amino)ethyl]thiophen-2-yl}formamido)-3-cyclopentyl-N-cyclopropylpropanamide]
10 | 11 | COc1ccc(Cl)cc1N[C@@H](C)c1ccc(C(=O)N[C@@H](CC2CCCC2)C(=O)NC2CC2)s1 [Compound 254, (2S)-2-({5-[(1S)-1-[(5-chloro-2-methoxyphenyl)amino]ethyl]thiophen-2-yl}formamido)-3-cyclopentyl-N-cyclopropylpropanamide]
11 | 10 | Cc1ncc(Cl)cc1N[C@@H](C)c1ccc(C(=O)N[C@@H](CC2CCCC2)C(=O)NCCF)s1 [Compound 271, (2S)-2-({5-[(1S)-1-[(5-chloro-2-methylpyridin-3-yl)amino]ethyl]thiophen-2-yl}formamido)-3-cyclopentyl-N-(2-fluoroethyl)propanamide]
12 | 10 | Cc1ncc(Cl)cc1N[C@@H](C)c1ccc(C(=O)N[C@@H](CC2CCC3CC32)C(=O)NC2CC2)s1 (stereo partly drawn) [Compound 92, (2S)-3-{bicyclo[3.1.0]hexan-2-yl}-2-({5-[(1S)-1-[(5-chloro-2-methylpyridin-3-yl)amino]ethyl]thiophen-2-yl}formamido)-N-cyclopropylpropanamide]
13 | 8 | Cc1cc(NC(=O)[C@H](CC2CCCCC2)NC(=O)c2ccc([C@H](C)Nc3cc(Cl)cnc3C)s2)ccn1 [Compound 252, (2S)-2-({5-[(1S)-1-[(5-chloro-2-methylpyridin-3-yl)amino]ethyl]thiophen-2-yl}formamido)-3-cyclohexyl-N-(2-methylpyridin-4-yl)propanamide]
14 | 7 | COCCN1CCCc2cc(NC(=O)[C@H](CC3CCCC3)NC(=O)c3ccc([C@H](C)Nc4cc(Cl)cnc4C)s3)ccc21 [Compound 129, (2S)-2-({5-[(1S)-1-[(5-chloro-2-methylpyridin-3-yl)amino]ethyl]thiophen-2-yl}formamido)-3-cyclopentyl-N-[1-(2-methoxyethyl)-1,2,3,4-tetrahydroquinolin-6-yl]propanamide]
15 | 7 | Cc1ncc(Cl)cc1N[C@@H](C)c1ccc(C(=O)N[C@@H](CC2CCCC2)C(=O)Nc2cc[nH]n2)s1 [Compound 155, (2S)-2-({5-[(1S)-1-[(5-chloro-2-methylpyridin-3-yl)amino]ethyl]thiophen-2-yl}formamido)-3-cyclopentyl-N-(1H-pyrazol-3-yl)propanamide]
16 | 6 | Cc1ncc(Cl)cc1N[C@@H](C)c1ccc(C(=O)N[C@@H](CC2CCCC2)C(=O)N[C@H]2C[C@H](C)C2)s1 [Compound 114, (2S)-2-({5-[(1S)-1-[(5-chloro-2-methylpyridin-3-yl)amino]ethyl]thiophen-2-yl}formamido)-3-cyclopentyl-N-[(1s,3r)-3-methylcyclobutyl]propanamide]
17 | 6 | Cc1ncc(Cl)cc1N[C@@H](C)c1ccc(C(=O)N[C@@H](CC2CCCC2)C(=O)Nc2cnn(C3CCN(C)CC3)c2)s1 [Compound 152, (2S)-2-({5-[(1S)-1-[(5-chloro-2-methylpyridin-3-yl)amino]ethyl]thiophen-2-yl}formamido)-3-cyclopentyl-N-[1-(1-methylpiperidin-4-yl)-1H-pyrazol-4-yl]propanamide]
18 | 6 | Cc1ncc(Cl)cc1N[C@@H](C)c1ccc(C(=O)N[C@@H](CC2CCCC2)C(=O)N[C@H]2C[C@@H](C#N)C2)s1 [Compound 221, (2S)-2-({5-[(1S)-1-[(5-chloro-2-methylpyridin-3-yl)amino]ethyl]thiophen-2-yl}formamido)-3-cyclopentyl-N-[(1s,3s)-3-cyanocyclobutyl]propanamide]
19 | 5 | Cc1ncc(Cl)cc1N[C@@H](C)c1ccc(C(=O)N[C@@H](CC2CCCC2)C(=O)Nc2ccnc(C(N)=O)c2)s1 [Compound 135, 4-[(2S)-2-({5-[(1S)-1-[(5-chloro-2-methylpyridin-3-yl)amino]ethyl]thiophen-2-yl}formamido)-3-cyclopentylpropanamido]pyridine-2-carboxamide]
20 | 5 | Cc1ncc(Cl)cc1N[C@@H](C)c1ccc(C(=O)N[C@@H](C[C@H]2CCC3CC32)C(=O)NC23CC(C2)C3)s1 (stereo partly drawn) [Compound 244, (2S)-N-{bicyclo[1.1.1]pentan-1-yl}-3-[(2R)-bicyclo[3.1.0]hexan-2-yl]-2-({5-[(1S)-1-[(5-chloro-2-methylpyridin-3-yl)amino]ethyl]thiophen-2-yl}formamido)propanamide]
